Measured values from patent US11661403B2, “Oxadiazole compounds” (Vivace Therapeutics, Inc., priority 2018, dated 2023).
Like-named read-outs stand apart in the source and are kept apart here.

Tested on: 8XTBD luciferase reporter (YAP) in HEK293T cells
Assay: YAP Reporter Assay
Assay type: cell-based
Conditions: Homo sapiens, HEK-293T
[1] = HEK293T cells stably transfected with 8XTBD luciferase reporter and pRLTK, 24-hr incubation, top concentration 3 μM, read-out: Firefly Luciferase IC50
[2] = […], 24-hr incubation, top concentration 3 μM, read-out: Firefly Luciferase IC50

Structure (SMILES)	IC50 [1] [µM]	further results
C#CC(O)Cc1nnc(-c2ccccc2Nc2ccc(C(F)(F)F)cc2)o1 (stereo not drawn) [Compound 120, 1-(5-(2-((4-(trifluoromethyl)phenyl)amino)phenyl)-1,3,4-oxadiazol-2-yl)but-3-yn-2-ol]	< 0.1	
CC(=O)OC(CO)c1nnc(-c2ccccc2Nc2ccc(C(F)(F)F)cc2)o1 (stereo not drawn) [Compound 202, 2-hydroxy-1-(5-(2-((4-(trifluoromethyl)phenyl)amino)phenyl)-1,3,4-oxadiazol-2-yl)ethyl acetate]	< 0.1	
CC(C)NCc1nnc(-c2ccccc2Nc2ccc(C(F)(F)F)cc2)o1 [Compound 97, 2-(5-((isopropylamino)methyl)-1,3,4-oxadiazol-2-yl)-N-(4-(trifluoromethyl)phenyl)aniline]	1 to 5	
CC1(C)OCC(O)(c2nnc(-c3ccccc3Nc3ccc(C(F)(F)F)cc3)o2)CO1 [Compound 199, 2,2-dimethyl-5-(5-(2-((4-(trifluoromethyl)phenyl)amino)phenyl)-1,3,4-oxadiazol-2-yl)-1,3-dioxan-5-ol]	1 to 5	
OC(CBr)c1nnc(-c2ccccc2Nc2ccc(C(F)(F)F)cc2)o1 (stereo not drawn) [Compound 121, 2-bromo-1-(5-(2-((4-(trifluoromethyl)phenyl)amino)phenyl)-1,3,4-oxadiazol-2-yl)ethan-1-ol]	< 0.1	
N#CCc1nnc(-c2ccccc2Nc2ccc(C(F)(F)F)cc2)o1 [Compound 137, 2-(5-(2-((4-(trifluoromethyl)phenyl)amino)phenyl)-1,3,4-oxadiazol-2-yl)acetonitrile]	0.1 to 1	
COC1(c2nnc(-c3ccccc3Nc3ccc(C(F)(F)F)cc3)o2)CC1 [Compound 67, 2-(5-(1-methoxycyclopropyl)-1,3,4-oxadiazol-2-yl)-N-(4-(trifluoromethyl)phenyl) aniline]	< 0.1	
N#Cc1nnc(-c2ccccc2Nc2ccc(C(F)(F)F)cc2)o1 [Compound 22, 5-[2-[4-(trifluoromethyl)anilino]phenyl]-1,3,4-oxadiazole-2-carbonitrile]	< 0.1	
C#CCOc1nnc(-c2ccccc2Nc2ccc(C(F)(F)F)cc2)o1 [Compound 83, 2-(5-(prop-2-yn-1-yloxy)-1,3,4-oxadiazol-2-yl)-N-(4-(trifluoromethyl)phenyl)aniline]	< 0.1	
CC(C)(C(N)=O)c1nnc(-c2ccccc2Nc2ccc(C(F)(F)F)cc2)o1 [Compound 162, 2-methyl-2-(5-(2-((4-(trifluoromethyl)phenyl)amino)phenyl)-1,3,4-oxadiazol-2-yl)propanamide]	< 0.1	
CC(C)(C(=O)NCC#N)c1nnc(-c2ccccc2Nc2ccc(C(F)(F)F)cc2)o1 [Compound 110, N-(cyanomethyl)-2-methyl-2-(5-(2-((4-(trifluoromethyl)phenyl)amino)phenyl)-1,3,4-oxadiazol-2-yl)propanamide]		IC50 [2]: 1 to 5 µM
C#CCC(O)c1nnc(-c2ccccc2Nc2ccc(C(F)(F)F)cc2)o1 (stereo not drawn) [Compound 124, 1-(5-(2-((4-(trifluoromethyl)phenyl)amino)phenyl)-1,3,4-oxadiazol-2-yl)but-3-yn-1-ol]	< 0.1	
OC1(c2nnc(-c3ccccc3Nc3ccc(C(F)(F)F)cc3)o2)CCC1 [Compound 54, 1-(5-(2-((4-(trifluoromethyl)phenyl)amino)phenyl)-1,3,4-oxadiazol-2-yl)cyclo butanol]		IC50 [2]: < 0.1 µM
O=c1[nH]c(-c2nnc(-c3ccccc3Nc3ccc(C(F)(F)F)cc3)o2)no1 [Compound 50, 3-[5-[2-[4-(trifluoromethyl)anilino]phenyl]-1,3,4-oxadiazol-2-yl]-4H-1,2,4-oxadiazol-5-one]	1 to 5	
O=C1NCC(c2nnc(-c3ccccc3Nc3ccc(C(F)(F)F)cc3)o2)O1 (stereo not drawn) [Compound 13, 5-(5-(2-((4-(trifluoromethyl)phenyl)amino)phenyl)-1,3,4-oxadiazol-2-yl)oxazolidin-2-one]	0.1 to 1	
CS(=O)(=O)C1(c2nnc(-c3ccccc3Nc3ccc(C(F)(F)F)cc3)o2)CC1 [Compound 66, 2-[5-(1-methylsulfonylcyclopropyl)-1,3,4-oxadiazol-2-yl]-N-[4-(trifluoromethyl)phenyl]aniline]		IC50 [2]: < 0.1 µM
OC(CCl)Cc1nnc(-c2ccccc2Nc2ccc(C(F)(F)F)cc2)o1 (stereo not drawn) [Compound 79, 1-chloro-3-(5-(2-((4-(trifluoromethyl)phenyl)amino)phenyl)-1,3,4-oxadiazol-2-yl)propan-2-ol]		IC50 [2]: < 0.1 µM
CC(C)(CO)c1nnc(-c2ccccc2Nc2ccc(C(F)(F)F)cc2)o1 [Compound 45, 2-methyl-2-(5-(2-((4-(trifluoromethyl)phenyl)amino)phenyl)-1,3,4-oxadiazol-2-yl)propan-1-ol]	< 0.1	
Cc1ccc(S(=O)(=O)N2C(=O)OCC2c2nnc(-c3ccccc3Nc3ccc(C(F)(F)F)cc3)o2)cc1 (stereo not drawn) [Compound 16, 3-tosyl-4-(5-(2-((4-(trifluoromethyl)phenyl)amino)phenyl)-1,3,4-oxadiazol-2-yl)oxazolidin-2-one]	0.1 to 1	
OCC1(c2nnc(-c3ccccc3Nc3ccc(C(F)(F)F)cc3)o2)CC1 [Compound 47, (1-(5-(2-((4-(trifluoromethyl)phenyl)amino)phenyl)-1,3,4-oxadiazol-2-yl)cyclopropyl)methanol]	< 0.1	

Structure (SMILES)	IC50 [1] [µM]	further results
OCCNc1nnc(-c2ccccc2Nc2ccc(C(F)(F)F)cc2)o1 [Compound 10, 2-((5-(2-((4-(trifluoromethyl)phenyl)amino)phenyl)-1,3,4-oxadiazol-2-yl)amino)ethan-1-ol]	0.1 to 1	
O=C(NC1CC1)c1nnc(-c2ccccc2Nc2ccc(C(F)(F)F)cc2)o1 [Compound 195, N-cyclopropyl-5-(2-((4-(trifluoromethyl)phenyl)amino)phenyl)-1,3,4-oxadiazole-2-carboxamide]	0.1 to 1	
CC1(c2nnc(-c3ccccc3Nc3ccc(C(F)(F)F)cc3)o2)CO1 (stereo not drawn) [Compound 132, 2-(5-(2-methyloxiran-2-yl)-1,3,4-oxadiazol-2-yl)-N-(4-(trifluoromethyl)phenyl)aniline]	< 0.1	
OC(CCl)c1nnc(-c2ccccc2Nc2ccc(C(F)(F)F)cc2)o1 (stereo not drawn) [Compound 81, 2-chloro-1-(5-(2-((4-(trifluoromethyl)phenyl)amino)phenyl)-1,3,4-oxadiazol-2-yl)ethan-1-ol]	< 0.1	
N#CCNC(=O)c1nnc(-c2ccccc2Nc2ccc(C(F)(F)F)cc2)o1 [Compound 114, N-(cyanomethyl)-5-(2-((4-(trifluoromethyl)phenyl)amino)phenyl)-1,3,4-oxadiazole-2-carboxamide]	< 0.1	
OCCc1nnc(-c2ccccc2Nc2ccc(C(F)(F)F)cc2)o1 [Compound 2, 2-(5-(2-((4-(trifluoromethyl)phenyl)amino)phenyl)-1,3,4-oxadiazol-2-yl)ethan-1-ol]	< 0.1	
CN(C)C(=O)c1nnc(-c2ccccc2Nc2ccc(C(F)(F)F)cc2)o1 [Compound 194, N,N-dimethyl-5-(2-((4-(trifluoromethyl)phenyl)amino)phenyl)-1,3,4-oxadiazole-2-carboxamide]		IC50 (24 h, read-out: Firefly Luciferase IC50 (μM)): 1 to 5 µM
NC(=O)CNc1nnc(-c2ccccc2Nc2ccc(C(F)(F)F)cc2)o1 [Compound 24, 2-((5-(2-((4-(trifluoromethyl)phenyl)amino)phenyl)-1,3,4-oxadiazol-2-yl)amino)acetamide]	0.1 to 1	
OC1(c2nnc(-c3ccccc3Nc3ccc(C(F)(F)F)cc3)o2)COC1 [Compound 55, 3-(5-(2-((4-(trifluoromethyl)phenyl)amino)phenyl)-1,3,4-oxadiazol-2-yl)oxetan-3-ol]	< 0.1	
FC(F)(F)c1ccc(Nc2ccccc2-c2nnco2)cc1 [Compound 20, 2-(1,3,4-oxadiazol-2-yl)-N-[4-(trifluoromethyl)phenyl]aniline]	0.1 to 1	
CC(C)(C#N)Cc1nnc(-c2ccccc2Nc2ccc(C(F)(F)F)cc2)o1 [Compound 89, 2,2-dimethyl-3-(5-(2-((4-(trifluoromethyl)phenyl)amino)phenyl)-1,3,4-oxadiazol-2-yl)propanenitrile]	0.1 to 1	
COCC(C)NC(=O)c1nnc(-c2ccccc2Nc2ccc(C(F)(F)F)cc2)o1 (stereo not drawn) [Compound 188, N-(1-methoxypropan-2-yl)-5-(2-((4-(trifluoromethyl)phenyl)amino)phenyl)-1,3,4-oxadiazole-2-carboxamide]	0.1 to 1	
CCOC(=O)Cc1nnc(-c2ccccc2Nc2ccc(C(F)(F)F)cc2)o1 [Compound 1, ethyl 2-(5-(2-((4-(trifluoromethyl)phenyl)amino)phenyl)-1,3,4-oxadiazol-2-yl) acetate]	0.1 to 1	
CC(O)(CC#N)c1nnc(-c2ccccc2Nc2ccc(C(F)(F)F)cc2)o1 (stereo not drawn) [Compound 130, 3-hydroxy-3-(5-(2-((4-(trifluoromethyl)phenyl)amino)phenyl)-1,3,4-oxadiazol-2-yl)butanenitrile]	< 0.1	
CN(C#N)CCc1nnc(-c2ccccc2Nc2ccc(C(F)(F)F)cc2)o1 [Compound 174, N-methyl-N-(2-(5-(2-((4-(trifluoromethyl)phenyl)amino)phenyl)-1,3,4-oxadiazol-2-yl)ethyl)cyanamide]	< 0.1	
FC(F)(F)c1ccc(Nc2ccccc2-c2nnc(-c3cocn3)o2)cc1 [Compound 36, 2-(5-(oxazol-4-yl)-1,3,4-oxadiazol-2-yl)-N-(4-(trifluoromethyl)phenyl)aniline]	0.1 to 1	
CCOC(=O)c1nnc(-c2ccccc2Nc2ccc(C(F)(F)F)cc2)o1 [Compound 3, ethyl 5-(2-((4-(trifluoromethyl)phenyl)amino)phenyl)-1,3,4-oxadiazole-2-carboxylate]	< 0.1	
CNCCc1nnc(-c2ccccc2Nc2ccc(C(F)(F)F)cc2)o1 [Compound 172, 2-(5-(2-(methylamino)ethyl)-1,3,4-oxadiazol-2-yl)-N-(4-(trifluoromethyl)phenyl)aniline]	1 to 5	
N#CN1CCC(c2nnc(-c3ccccc3Nc3ccc(C(F)(F)F)cc3)o2)C1 (stereo not drawn) [Compound 177, 3-(5-(2-((4-(trifluoromethyl)phenyl)amino)phenyl)-1,3,4-oxadiazol-2-yl)pyrrolidine-1-carbonitrile]	0.1 to 1	
